Reference: patent US8853203B2, “Diazepinone derivatives” (Novartis AG, priority 2012, dated 2014)

What was measured:
human mGluR5a receptors = human mGluR5a receptors (Homo sapiens (Human), UniProt P41594); experiment: inhibition of glutamate-induced elevation of intracellular calcium in L(tk-) cells expressing human mGluR5a; format: cell-based; conditions: glutamate-induced intracellular calcium elevation, L(tk-) cells expressing human mGluR5a; read-out: mGluR5 IC50
Description: Activity of compounds of the present invention was examined by determination to what extent the glutamate-induced elevation of the intracellular calcium concentration in L(tk-) cells expressing human mGluR5a receptors (see L. P. Daggett et al., Neuropharm. Vol. 34, pages 871-886, 1995) is inhibited by utilizing methods as described e.g. by L. P. Daggett et al., Neuropharm. Vol. 34, pages 871-886 (1995) and P. J. Flor et al., J. Neurochem. Vol. 67, pages 58-63 (1996).

human mGluR1 = human mGluR1 (Homo sapiens (Human), UniProt Q13255); experiment: mGluR1 antagonism, L-glutamate induced intracellular calcium increase (FLIPR) in CHO cells stably expressing human mGluR1; format: cell-based; conditions: L-glutamate induced intracellular calcium, CHO cells expressing human mGluR1, FLIPR
human mGluR1, sequence (Q13255 19-1194): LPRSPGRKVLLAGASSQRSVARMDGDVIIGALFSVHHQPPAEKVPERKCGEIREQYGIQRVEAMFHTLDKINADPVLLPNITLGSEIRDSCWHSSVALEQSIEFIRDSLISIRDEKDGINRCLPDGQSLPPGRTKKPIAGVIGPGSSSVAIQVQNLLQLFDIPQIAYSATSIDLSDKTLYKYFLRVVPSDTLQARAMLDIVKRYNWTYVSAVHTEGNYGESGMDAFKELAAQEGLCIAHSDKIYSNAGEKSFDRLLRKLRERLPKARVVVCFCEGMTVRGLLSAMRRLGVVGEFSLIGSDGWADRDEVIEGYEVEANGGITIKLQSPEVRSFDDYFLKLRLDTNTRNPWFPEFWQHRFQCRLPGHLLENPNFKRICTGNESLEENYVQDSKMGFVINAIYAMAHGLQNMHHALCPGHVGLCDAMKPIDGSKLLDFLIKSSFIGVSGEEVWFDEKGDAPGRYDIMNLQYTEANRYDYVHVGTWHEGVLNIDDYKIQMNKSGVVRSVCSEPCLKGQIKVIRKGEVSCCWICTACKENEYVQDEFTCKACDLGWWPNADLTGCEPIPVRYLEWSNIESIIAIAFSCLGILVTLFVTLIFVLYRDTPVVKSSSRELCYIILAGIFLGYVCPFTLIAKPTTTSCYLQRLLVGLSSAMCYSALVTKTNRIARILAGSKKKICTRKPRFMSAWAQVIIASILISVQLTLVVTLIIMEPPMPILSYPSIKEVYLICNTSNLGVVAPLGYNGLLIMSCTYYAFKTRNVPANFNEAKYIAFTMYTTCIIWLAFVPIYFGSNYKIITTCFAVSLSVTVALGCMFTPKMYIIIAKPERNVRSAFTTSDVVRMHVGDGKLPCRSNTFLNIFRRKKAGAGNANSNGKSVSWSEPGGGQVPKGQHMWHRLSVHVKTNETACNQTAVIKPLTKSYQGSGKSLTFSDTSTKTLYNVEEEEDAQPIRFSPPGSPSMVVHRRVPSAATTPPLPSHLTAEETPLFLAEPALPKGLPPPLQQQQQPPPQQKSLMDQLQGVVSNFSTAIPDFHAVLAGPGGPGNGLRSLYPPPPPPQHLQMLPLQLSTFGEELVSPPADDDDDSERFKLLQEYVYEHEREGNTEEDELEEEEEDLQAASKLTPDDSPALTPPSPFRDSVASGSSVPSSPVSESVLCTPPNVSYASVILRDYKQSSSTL
Description: Activity of compounds of the present invention with respect to mGluR1 antagonism was examined by an assay based on measurements of L-glutamate induced intracellular calcium increases using a 96 well plate-based Fluorometric Imaging Plate Reader (FLIPR), and CHO cells stably expressing human mGluR1. L-glutamate induced robust calcium responses via human mGluR1 in a concentration-dependent manner and in the low micromolar range. The table below represents IC50 values of the inhibition of the glutamate-induced elevation of the intracellular calcium concentration.

human mGluR5a receptors, sequence (P41594 other isoform, or with tags, fused parts or gaps): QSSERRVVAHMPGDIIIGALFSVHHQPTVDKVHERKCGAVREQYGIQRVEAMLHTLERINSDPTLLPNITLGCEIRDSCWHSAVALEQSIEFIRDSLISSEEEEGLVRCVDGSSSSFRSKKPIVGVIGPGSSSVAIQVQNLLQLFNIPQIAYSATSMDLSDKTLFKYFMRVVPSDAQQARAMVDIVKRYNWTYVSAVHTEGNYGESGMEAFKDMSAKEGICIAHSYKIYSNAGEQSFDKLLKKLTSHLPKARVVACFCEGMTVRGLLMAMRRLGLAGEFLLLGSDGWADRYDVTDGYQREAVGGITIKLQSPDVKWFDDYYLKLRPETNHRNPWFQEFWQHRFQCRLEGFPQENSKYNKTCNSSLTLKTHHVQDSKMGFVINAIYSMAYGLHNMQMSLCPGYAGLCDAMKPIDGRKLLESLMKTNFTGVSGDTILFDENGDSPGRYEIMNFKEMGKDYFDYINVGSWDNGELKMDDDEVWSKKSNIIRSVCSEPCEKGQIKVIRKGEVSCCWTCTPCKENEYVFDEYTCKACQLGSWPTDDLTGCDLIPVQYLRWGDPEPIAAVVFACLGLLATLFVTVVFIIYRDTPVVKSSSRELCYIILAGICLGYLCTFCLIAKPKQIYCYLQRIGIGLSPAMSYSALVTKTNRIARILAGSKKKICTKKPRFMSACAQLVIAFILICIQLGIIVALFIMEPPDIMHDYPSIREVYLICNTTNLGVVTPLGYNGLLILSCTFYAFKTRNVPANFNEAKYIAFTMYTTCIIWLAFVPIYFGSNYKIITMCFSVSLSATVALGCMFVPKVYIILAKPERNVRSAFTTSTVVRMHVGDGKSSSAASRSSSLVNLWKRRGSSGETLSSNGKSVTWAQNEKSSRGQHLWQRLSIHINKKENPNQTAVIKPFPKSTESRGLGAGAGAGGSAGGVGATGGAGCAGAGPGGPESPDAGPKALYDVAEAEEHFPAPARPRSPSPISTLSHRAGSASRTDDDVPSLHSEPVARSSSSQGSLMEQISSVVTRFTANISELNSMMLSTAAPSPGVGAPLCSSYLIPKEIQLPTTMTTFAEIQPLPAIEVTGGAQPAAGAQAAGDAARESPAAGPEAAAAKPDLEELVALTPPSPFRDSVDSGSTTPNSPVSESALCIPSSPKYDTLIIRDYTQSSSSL

SMILES	IC50 (human mGluR5a receptors)	IC50 (human mGluR1)
CCc1cn(C2=NCC(=O)N3CCc4c(cccc4C4(F)COC4)C3=C2)cn1 [Example 114, 2-(4-ethyl-1H-imidazol-1-yl)-9-(3-fluorooxetan-3-yl)-7,8-dihydro-[1,4]diazepino[7,1-a]isoquinolin-5(4H)-one]	1600 nM	> 10000 nM
O=C1CN=C(n2cnc(C3CC3)n2)C=C2c3ccnc(C4CC4)c3CCN12 [Example 110b, 9-cyclopropyl-2-(3-cyclopropyl-1H-1,2,4-triazol-1-yl)-7,8-dihydro-[1,4]diazepino[7,1-a][2,6]naphthyridin-5(4H)-one]	758 nM	> 10000 nM
COCc1cn(C2=NCC(=O)N3CCc4c(cccc4C(C)(C)C)C3=C2)cn1 [Example 125, 9-(tert-butyl)-2-(4-(methoxymethyl)-1H-imidazol-1-yl)-7,8-dihydro-[1,4]diazepino[7,1-a]isoquinolin-5(4H)-one]	180 nM	> 2000 nM
Cn1ccc(C2=NCC(=O)N3CCc4c(CO)cccc4C3=C2)n1 [Example 45, 9-(hydroxymethyl)-2-(1-methyl-1H-pyrazol-3-yl)-7,8-dihydro-[1,4]diazepino[7,1-a]isoquinolin-5(4H)-one]	700 nM	> 10000 nM
COc1cccc(C2=NCC(=O)N3CCc4c(OC)cccc4C3=C2)c1 [Example 1, 9-methoxy-2-(3-methoxyphenyl)-7,8-dihydro-[1,4]diazepino[7,1-a]isoquinolin-5(4H)-one]	327 nM	6400 nM
N#Cc1cccc2c1CCN1C(=O)CN=C(c3cccs3)C=C21 [Example 39, 5-oxo-2-(thiophen-2-yl)-4,5,7,8-tetrahydro-[1,4]diazepino[7,1-a]isoquinoline-9-carbonitrile]	610 nM	1600 nM
COc1cccc2c1CCN1C(=O)CN=C(c3ccn(C)n3)C=C21 [Example 11, 9-methoxy-2-(1-methyl-1H-pyrazol-3-yl)-7,8-dihydro-[1,4]diazepino[7,1-a]isoquinolin-5(4H)-one]	170 nM	690 nM
CCCc1cccc2c1CCN1C(=O)CN=C(n3cnc(C)c3)C=C21 [Example 90, 2-(4-methyl-1H-imidazol-1-yl)-9-propyl-7,8-dihydro-[1,4]diazepino[7,1-a]isoquinolin-5(4H)-one]	10 nM	1500 nM
CC(C)(C)c1cn(C2=NCC(=O)N3CCc4c(cccc4C4CCCO4)C3=C2)cn1 (centres unmarked) [Example 112, 2-(4-(tert-butyl)-1H-imidazol-1-yl)-9-(tetrahydrofuran-2-yl)-7,8-dihydro-[1,4]diazepino[7,1-a]isoquinolin-5(4H)-one]	515 nM	> 10000 nM
O=C1CN=C(n2cnc(-c3ncco3)c2)C=C2c3cccc(-c4cccnc4F)c3CCN12 [Example 106, 9-(2-fluoropyridin-3-yl)-2-(4-(oxazol-2-yl)-1H-imidazol-1-yl)-7,8-dihydro-[1,4]diazepino[7,1-a]isoquinolin-5(4H)-one]	182 nM	> 10000 nM
COc1ccc(C)c(C2=NCC(=O)N3CCc4c(OC)cccc4C3=C2)c1 [Example 18, 9-methoxy-2-(5-methoxy-2-methylphenyl)-7,8-dihydro-[1,4]diazepino[7,1-a]isoquinolin-5(4H)-one]	4100 nM	> 10000 nM
O=C1CN=C(n2cnc(C3CC3)c2)C=C2c3ccnc(C4CC4)c3CCN12 [Example 110a, 9-cyclopropyl-2-(4-cyclopropyl-1H-imidazol-1-yl)-7,8-dihydro-[1,4]diazepino[7,1-a][2,6]naphthyridin-5(4H)-one]	328 nM	> 2000 nM
CCc1cc(C2=NCC(=O)N3CCc4c(OC)cccc4C3=C2)ccn1 [Example 10, 2-(2-ethylpyridin-4-yl)-9-methoxy-7,8-dihydro-[1,4]diazepino[7,1-a]isoquinolin-5(4H)-one]	345 nM	940 nM
COCc1cn(C2=NCC(=O)N3CCc4c(cccc4-c4cscn4)C3=C2)cn1 [Example 101, 2-(4-(methoxymethyl)-1H-imidazol-1-yl)-9-(thiazol-4-yl)-7,8-dihydro-[1,4]diazepino[7,1-a]isoquinolin-5(4H)-one]	26 nM	> 10000 nM
N#Cc1cn(C2=NCC(=O)N3CCc4c(I)cccc4C3=C2)cn1 [Example 64, 1-(9-iodo-5-oxo-4,5,7,8-tetrahydro-[1,4]diazepino[7,1-a]isoquinolin-2-yl)-1H-imidazole-4-carbonitrile]	4300 nM	> 10000 nM

The next lines start with the values.

IC50 (human mGluR5a receptors)	IC50 (human mGluR1)	SMILES
127 nM	8260 nM	O=C1CN=C(n2cnc(C3CC3)c2)C=C2c3cccc(-c4cc[nH]n4)c3CCN12 [Example 99e, 2-(4-cyclopropyl-1H-imidazol-1-yl)-9-(1H-pyrazol-3-yl)-7,8-dihydro-[1,4]diazepino[7,1-a]isoquinolin-5(4H)-one]
145 nM	> 10000 nM	Cc1cn(C2=NCC(=O)N3CCc4c(cccc4-c4ccncc4)C3=C2)cn1 [Example 80, 2-(4-methyl-1H-imidazol-1-yl)-9-(pyridin-4-yl)-7,8-dihydro-[1,4]diazepino[7,1-a]isoquinolin-5(4H)-one]
79 nM	1480 nM	O=C1CN=C(n2cnc(C3CC3)c2)C=C2c3cccc(-n4nccn4)c3CCN12 [Example 138, 2-(4-cyclopropyl-1H-imidazol-1-yl)-9-(2H-1,2,3-triazol-2-yl)-7,8-dihydro-[1,4]diazepino[7,1-a]isoquinolin-5(4H)-one]
82 nM	530 nM	COc1cccc(C2=NCC(=O)N3CCc4c(ccc(Cl)c4OC)C3=C2)c1 [Example 13, 10-chloro-9-methoxy-2-(3-methoxyphenyl)-7,8-dihydro-[1,4]diazepino[7,1-a]isoquinolin-5(4H)-one]
66 nM	> 10000 nM	COc1cc(C2=NCC(=O)N3CCc4c(cccc4-c4cnccn4)C3=C2)ccn1 [Example 52, 2-(2-methoxypyridin-4-yl)-9-(pyrazin-2-yl)-7,8-dihydro-[1,4]diazepino[7,1-a]isoquinolin-5(4H)-one]
46 nM	1050 nM	COCCc1cn(C2=NCC(=O)N3CCc4c(cccc4-c4nccs4)C3=C2)cn1 [Example 88h, 2-(4-(2-methoxyethyl)-1H-imidazol-1-yl)-9-(thiazol-2-yl)-7,8-dihydro-[1,4]diazepino[7,1-a]isoquinolin-5(4H)-one]
90 nM	27 nM	O=C1CN=C(c2cccs2)C=C2c3cccc(Cl)c3CCN12 [Example 2, 9-chloro-2-(thiophen-2-yl)-7,8-dihydro-[1,4]diazepino[7,1-a]isoquinolin-5(4H)-one]
2 nM	814 nM	COCc1ncn(C2=NCC(=O)N3CCc4c(ccc(F)c4C4CC4)C3=C2)n1 [Example 99p, 9-cyclopropyl-10-fluoro-2-(3-(methoxymethyl)-1H-1,2,4-triazol-1-yl)-7,8-dihydro-[1,4]diazepino[7,1-a]isoquinolin-5(4H)-one]
22 nM	> 10000 nM	Cc1ccc(C2=NCC(=O)N3CCc4c(cccc4N4CCOCC4)C3=C2)o1 [Example 23, 2-(5-methylfuran-2-yl)-9-morpholino-7,8-dihydro-[1,4]diazepino[7,1-a]isoquinolin-5(4H)-one]
7 nM	1300 nM	O=C1CN=C(n2cnc(C3CC3)c2)C=C2c3cccc(-c4ncco4)c3CCN12 [Example 104, 2-(4-cyclopropyl-1H-imidazol-1-yl)-9-(oxazol-2-yl)-7,8-dihydro-[1,4]diazepino[7,1-a]isoquinolin-5(4H)-one]
90 nM	8 nM	O=C1CN=C(c2cccs2)C=C2c3cccc(Br)c3CCN12 [Example 29, 9-bromo-2-(thiophen-2-yl)-7,8-dihydro-[1,4]diazepino[7,1-a]isoquinolin-5(4H)-one]
66 nM	> 10000 nM	Cn1cc(C2=NCC(=O)N3CCc4c(cccc4N4CCOCC4)C3=C2)cn1 [Example 25, 2-(1-methyl-1H-pyrazol-4-yl)-9-morpholino-7,8-dihydro-[1,4]diazepino[7,1-a]isoquinolin-5(4H)-one]
17 nM	761 nM	O=C1CN=C(n2cnc(C3CC3)n2)C=C2c3cccc(-c4nccs4)c3CCN12 [Example 88g, 2-(3-cyclopropyl-1H-1,2,4-triazol-1-yl)-9-(thiazol-2-yl)-7,8-dihydro-[1,4]diazepino[7,1-a]isoquinolin-5(4H)-one]
71 nM	3400 nM	COC(C)c1cccc2c1CCN1C(=O)CN=C(c3ccn(C)n3)C=C21 (centres unmarked) [Example 47, 9-(1-methoxyethyl)-2-(1-methyl-1H-pyrazol-3-yl)-7,8-dihydro-[1,4]diazepino[7,1-a]isoquinolin-5(4H)-one]
7 nM	1200 nM	O=C1CN=C(n2cnc(C3(O)CC3)c2)C=C2c3cccc(C4CC4)c3CCN12 [Example 127, 9-cyclopropyl-2-(4-(1-hydroxycyclopropyl)-1H-imidazol-1-yl)-7,8-dihydro-[1,4]diazepino[7,1-a]isoquinolin-5(4H)-one]
< 1 nM	636 nM	Cc1ncn(C2=NCC(=O)N3CCc4c(cccc4C4CCC4)C3=C2)n1 [Example 92, 9-cyclobutyl-2-(3-methyl-1H-1,2,4-triazol-1-yl)-7,8-dihydro-[1,4]diazepino[7,1-a]isoquinolin-5(4H)-one]
